Results reported in patent US6331555A, “Treatment of platelet derived growth factor related disorders such as cancers” (priority 1999, dated 2001).

How the values were obtained:
[1] = tested on: NIH3T3 cells overexpressing the human PDGF-b receptor; assay: PDGF-stimulated cell cycle progression, flow cytometry; assay type: cell-based, mouse
Experimental: NIH3T3 mouse fibroblasts overexpressing the human PDGF-β receptor were seeded in DMEM supplemented with 10% CS and 2 mM GLN. Cells were grown to about 80% confluence and then treated overnight in serum-free medium (DMEM, 2 mM GLN, 2 mM NEAA, 2 mM NaPyr, and 2 mM HEPES). […] Cells were then collected, strained and analyzed by flow cytometry for DNA content.
The percentage of cells in the S phase of the cell cycle was determined by flow cytometry.
The cells were analyzed for DNA content by flow cytometry.

[2] = tested on: ovarian carcinoma primary tumor cells; assay: Growth of primary tumor cells from ovarian carcinoma patients; assay type: cell-based, human; set-up: tumor cell growth: dose or concentration left out as unconfirmed
Experimental: Viable tumors were placed into medium by the pathologist at the referring institution immediately after surgery, and shipped to Oncotech by overnight delivery. As soon as a tumor was received, a portion was fixed in formalin for sectioning and the remainder trimmed of necrotic, connective and adipose tissues. All tumor manipulations were performed aseptically. The remaining tumor was placed into a Petri dish containing 5 mL of medium (RPMI 1640 supplemented with 10% FBS, 100 IU/mL penicillin, […] streptomycin and L-glutamine) and disaggregated mechanically with scissors into pieces 2 mm or smaller. […]
After enzymatic dispersion into a near single-cell suspension, tumor cells were filtered through nylon mesh, washed in medium, suspended in soft agarose (0.12%) and plated at approximately 20,000 cells per well onto an agarose underlayer (0.4%) in 24-well plates. […] After the appropriate labeling period, tissue culture plates were heated at 60° C. to melt the agarose, the cells harvested with a micro-harvester onto glass fiber filters and the radioactivity determined. Percent inhibition (PCI) was determined using the formula: PCI=1-(CPM treatment group […] CPM control group). Determinations of control group proliferation were performed in quadruplicate, while treatment group proliferation was determined in triplicate. […]

[3] = tested on: A375 melanoma; assay: SC xenograft in mice; assay type: in vivo, human
Experimental: (§1) Cell lines were grown in appropriate medium (see Appendix 1). Cells were harvested at or near confluency with 0.05% Trypsin-EDTA and pelleted at 450×g for 10 min. Pellets were resuspended in sterile PBS or media (without FBS) to a particular concentration and the cells were implanted into the hindflank of mice. Tumor growth was measured over 3 to 6 weeks using venier calipers. Tumor volumes were calculated as a product of length×width×height unless otherwise indicated. P values were calculated using the Students' t-test.
(§2) The mice were treated for three week.

[4] = tested on: PC-3 prostate tumor; assay: SC xenograft in mice; assay type: in vivo, human; settings: SCID
Experimental: as §1, §2

[5] = tested on: D1B leukemia; assay: SC syngeneic leukemia model in mice; assay type: in vivo, murine; settings: DBA/2, 20 mg/kg/day, day 22
Experimental: as §1

[6] = tested on: C6 cells; assay: Intracerebral C6 tumor, athymic mice, survival; assay type: in vivo, rat; settings: IC C6, athymic mice
Experimental: FIG. 4. In two separate experiments, C6 cells (1×10^5 cells in 4 μL) were implanted into the cerebrum of BALB/c, nu/nu mice. […] V=vehicle control. n=8 to 12 (Expt #1), or 5 (Expt #2) animals per group. * P<0.00001; ** P<0.002; *** P<0.02 compared to vehicle control.
For the mouse IC model, rat C6 glioma cells were harvested and suspended in sterile PBS at a concentration of 2.5×10^7 cells/mL and placed on ice. Cells were implanted into BALB/c, nu/nu mice in the following manner: the frontoparietal scalps of mice were shaved with animal clippers if necessary before swabbing with 70% ethanol. Animals were anesthetized with isofluorane and the needle was inserted through the skull into the left hemisphere of the brain. Cells were dispensed from Hamilton Gas-tight Syringes using 30 gauge 1/2 inch needles fitted with sleeves that allowed only a 3 mm penetration. A repeater dispenser was used for accurate delivery of 4 μL of cell suspension.

[7] = tested on: WEHI-164.13 cells; assay: CTL generation in tumor-bearing mice (MLTC); assay type: in vivo, mouse; set-up: CTL activity: key to the marks not given beside the values; settings: 20 mg/kg/day
Experimental: BALB/c mice received SC implants of syngeneic WEHI-164.13 fibrosarcoma cells on day 0. […] On day 17, the animals were sacrificed and their spleens were removed. The spleen cells were assayed in vitro for responses to alloantigens and mitogens.
The spleen cells were also assayed for the generation of WEHI-164.13-specific cytotoxic T-lymphocytes (CTL) in the mixed lymphocyte tumor cell culture (MLTC). Spleen cells from untreated tumor-bearing animals mounted a vigorous CTL response (44% specific lysis at E:T=50:1). This response was inhibited almost completely in animals receiving the vehicle alone (13% specific lysis). […] (Walia, et al., Proc. Soc. Exp. Biol. Med., 192:177-200, 1989.)

[8] = tested on: C6 cells; assay: CTL generation in tumor-bearing rats (MLTC); assay type: in vivo, rat; settings: 8.4 mg/kg/day
Experimental: Wistar rats received SC implants of C6 cells on day 0. […] The control group was not treated after tumor implantation. On day 21, the animals were sacrificed and the spleens were removed for in vitro analyses. Splenocytes were stimulated with ConA, LPS, and alloantigen (DA rat spleen cells) as in the murine studies.
The spleen cells from Wistar rats were also assayed for the generation of C6-specific CTL in the MLTC and the results summarized in Table XXI. Spleen cells from tumor-bearing, untreated animals mounted a vigorous CTL response (35% specific lysis at E:T=100:1), while cells from non-tumor bearing control rats mounted a weak response (13% specific lysis at E:T=100:1). Similar to the studies in BALB/c mice, it appeared that the vehicle inhibited the generation of CTL in a 7-day culture.

[9] = tested on: autoimmune animal diseases; settings: in vivo; cited from earlier work
[10] = Ex vivo conversion of A10 to B11 in human plasma

Cc1oncc1C(=O)Nc1ccc(C(F)(F)F)cc1 [Compound A10, 5-methylisoxazole-4 carboxylic acid-(4-trifluromethyl)-anilide]
number of cells progressing to the S phase in response to PDGF [1]: dose-dependent decrease in the number of cells progressing to the S phase | tumor cell growth [2]: tumor cell growth decreased for both types of tumors | IC50 ([2]; Homo sapiens, range over six patients, read-out: IC50, ovarian tumors): 20 to 140 µM | tumor growth inhibition ([3]; 15 mg/kg/day, five days per week, from day 9, after three weeks): about 40% | % Inhibition ([3]; SCID, 15 mg/kg/day, day 31, treatment from day 9): 35% | % Inhibition ([3]; nu/nu, 20 mg/kg/day, day 31): 53% | tumor growth inhibition ([4]; 12 mg/kg/day (PBTE:D5W), five days per week, from day 15, after three weeks): about 50% | % Inhibition ([4]; 12 mg/kg/day, day 36, treatment from day 15): 47% | % Inhibition [5]: 95% | average survival time [6]: significantly increased compared to controls | CTL response, specific lysis ([7]; vehicle 13%, untreated 44%): 78% | CTL activity ([7]; Tumor stimulus): ++ | CTL generation [8]: did not overcome the inhibitory effect of the vehicle in immunocompetent rats | CTL activity ([8]; Tumor stimulus): 0 | autoimmune animal diseases [9]: very effective in preventing and curing several autoimmune animal diseases | time of complete conversion to B11 ([10]; 25° C., human plasma): ≤ 21 h | A10 remaining, co-incubation of B11 and A10 ([10]; fresh human plasma, after 21 hr): No A10 was detected after 21 hr | conversion to B11 in heat-inactivated plasma ([10]; human, 15 min at 60° C.): does not occur
